# Several values for one entry are separate records, joined by “and”; a condition that tells them apart may be missing. Equal values may be shown once.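 1) Cells in 96-well plates. 2) Compound, 48 h, 5 concentrations. 3) Linear interpolation between surrounding doses. 4) Unreached endpoint = highest concentration. GI50 marks 50% less growth. Definition used: TGI = concentration required for complete inhibition of growth.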
# Assays:
# Assay in all cases: inhibition of tumour cell growth, NCI panel, 48 h
# [1] = system: RXF 393 renal
# [2] = system: HL-60(TB) leukemia
# [3] = system: HT29 colon
# [4] = system: SK-MEL-28 melanoma
# [5] = system: OVCAR-3 ovarian
# [6] = system: CAKI-1 renal
# [7] = system: IGROV1 ovarian
# [8] = system: UACC-257 melanoma
# [9] = system: DLD-1 colon
# [10] = system: DMS 114 small cell lung
Structure (SMILES),GI50 [1],TGI [1],GI50 [2],TGI [2],GI50 [3],TGI [3],GI50 [4],TGI [4],GI50 [5],TGI [5],GI50 [6],TGI [6],GI50 [7],TGI [7],GI50 [8],TGI [8],TGI [9] [µM],TGI [10] [µM]
CC1=C[C@@H]2c3c(c(O)c(O)c4oc5cc(O)cc(O)c5c(=O)c34)[C@@H](c3cc(O)c(O)c4oc5cc(O)cc(O)c5c(=O)c34)[C@@H]2C(C)(C)C1,5.69 µM,17.3 µM,4.87 µM,27.4 µM,3.86 µM,14.8 µM,5.64 µM,18.7 µM,3.33 µM,13.4 µM,3.93 µM,14 µM,4.01 µM,22.2 µM,9.65 µM,24.5 µM,–,–
CNc1cc(-c2cccc(OC(F)(F)F)c2)nc2ccc(N3CCCC3)cc12,1.8 µM and 1.81 µM and 1.51 µM,3.27 µM and 3.28 µM and 2.91 µM,2.12 µM and 1.96 µM and 1.95 µM,4.65 µM and 4.94 µM and 4.28 µM,1.31 µM and 1.61 µM and 1.54 µM,2.69 µM and 3.06 µM and 3.01 µM,1.64 µM and 1.78 µM and 1.67 µM,3.03 µM and 3.2 µM and 3.06 µM,1.69 µM and 1.92 µM and 1.86 µM,3.14 µM and 3.6 µM and 3.39 µM,1.57 µM and 1.53 µM and 1.6 µM,2.91 µM and 2.88 µM and 2.97 µM,1.57 µM and 1.74 µM and 1.72 µM,3.08 µM and 3.39 µM and 3.25 µM,1.89 µM and 1.77 µM and 1.86 µM,3.37 µM and 3.16 µM and 3.34 µM,–,–
CSc1nc2c(c(=O)n1C)C(c1ccccc1)C1=C(N2)/C(=C/c2ccccc2)CCC1 (centres undefined),2.35 µM,6.21 µM,0.721 µM,48.4 µM,3.58 µM,71 µM,> 100 µM,> 100 µM,4.41 µM,> 100 µM,69 µM,> 100 µM,13.6 µM,> 100 µM,6.63 µM,> 100 µM,–,–
CN(C)N=Nc1ccc(S(N)(=O)=O)cc1,–,–,–,–,–,> 100 µM,–,> 100 µM,–,> 100 µM,–,> 100 µM,–,> 100 µM,–,> 100 µM,> 100,> 100
COc1ccc2c(c1)-c1c(c3cc(OC)ccc3n(CCN(C)C)c1=O)C2=O,1.59 µM,7.23 µM,1.38 µM,5.97 µM,0.24 µM,1.2 µM,2.59 µM,8.73 µM,0.843 µM,4.73 µM,1.77 µM,18.8 µM,0.243 µM,2.31 µM,1.3 µM,4.78 µM,–,–
CCS(=O)(=O)c1ccc(OC)c(Nc2ncc(-c3cccc(F)c3)o2)c1,> 20.8 µM,> 25 µM,> 25 µM,> 25 µM,> 25 µM,> 25 µM,> 25 µM,> 25 µM,> 25 µM,> 25 µM,> 25 µM,> 25 µM,> 25 µM,> 25 µM,> 25 µM,> 25 µM,–,–
CN1CCN(c2ccc(NC3=CC(=O)c4ncncc4C3=O)cc2)CC1,1.29 µM,2.61 µM,0.249 µM,0.635 µM,1.72 µM,5.98 µM,1.46 µM,3.08 µM,0.313 µM,–,1.34 µM,2.68 µM,0.231 µM,0.542 µM,0.177 µM,0.357 µM,–,–
COc1cnccc1Nc1nc(-c2nn(Cc3c(F)cc(OCCO)cc3F)c3ccccc23)ncc1OC,3.85 µM,17.1 µM,1.42 µM,> 100 µM,2.87 µM,16.4 µM,2.47 µM,9.66 µM,3.05 µM,8.51 µM,11.9 µM,29.5 µM,2.89 µM,16.4 µM,4.38 µM,17 µM,–,–
CN(C)c1ccc2[nH]c3c(C(N)=O)cc(=O)c(=O)c=3oc2c1,1.89 µM,7.24 µM,0.668 µM,4.04 µM,3.66 µM,> 100 µM,4.2 µM,> 100 µM,0.508 µM,6.85 µM,3.48 µM,> 100 µM,1.95 µM,14.2 µM,1.77 µM,6.18 µM,–,–
COc1ccc(C(=O)C(C(=O)C(=O)NCCCNC(=O)C(=O)C(C(=O)c2ccc(OC)cc2)c2ccc(OC)cc2)c2ccc(OC)cc2)cc1 (centres undefined),–,–,–,> 100 µM,–,> 100 µM,–,> 100 µM,–,> 100 µM,–,–,–,> 100 µM,–,> 100 µM,> 100,> 100
COc1ccc2c(c1)C(=O)c1c-2n(CCCN(C)C)c(=O)c2cc([N+](=O)[O-])ccc12,< 0.01 µM,0.0926 µM,< 0.01 µM,0.245 µM,< 0.01 µM,0.61 µM,0.192 µM,2.59 µM,0.0191 µM,0.748 µM,< 0.01 µM,–,< 0.01 µM,13.6 µM,0.227 µM,29.4 µM,–,–
O=C1NC(=NCCc2ccc(Br)cc2)S/C1=C\c1ccc2ncccc2c1,> 20.9 µM,> 25 µM,> 25 µM,> 25 µM,> 25 µM,> 25 µM,> 25 µM,> 25 µM,> 25 µM,> 25 µM,> 20.3 µM,> 25 µM,> 25 µM,> 25 µM,> 25 µM,> 25 µM,–,–
COC1/C(=C\C(C)=O)c2ccccc2N1C(C)=O (centres undefined),–,> 100 µM,–,> 100 µM,–,> 100 µM,–,> 100 µM,–,> 100 µM,–,> 100 µM,–,> 100 µM,–,> 100 µM,> 100,–
CN(CCCCCl)P(=O)(OCc1ccc([N+](=O)[O-])o1)OCC1OC(n2cc([N+](=O)[O-])c(=O)[nH]c2=O)CC1O (centres undefined),> 100 µM,> 100 µM,> 100 µM,> 100 µM,> 100 µM,> 100 µM,45.9 µM,> 100 µM,43.6 µM,> 100 µM,48.5 µM,> 100 µM,> 100 µM,> 100 µM,> 100 µM,> 100 µM,–,–
CCN1C(=O)N(CC)C2C1N=C(SC)N2/N=C/C=C/c1ccccc1OC (centres undefined),0.376 µM,35.3 µM,0.289 µM,1.09 µM,0.357 µM,–,> 32.1 µM,> 50.3 µM,0.375 µM,> 54.2 µM,0.572 µM,> 58.3 µM,0.618 µM,> 45.1 µM,> 32.9 µM,> 58 µM,–,–

# Source: PubChem BioAssay (NCI)
